Data reported in US20030170250A1, “Local delivery of long lasting therapeutic agents” (priority 1998, published 2003).

Test system: carotid artery
Experiment: In vivo addition of NHS-Rhodamine: local incubation in isolated carotid artery chamber, fluorescence of the artery
Parameters: species or system New Zealand rabbits
Settings: 100 μl of 500 μM, 3 minutes incubation in 1-cm chamber, washed with 0.9% sodium chloride
Experimental: Both carotid arteries were isolated and blood flows were measured. A catheter (22G) was inserted in the arterial segment and rinsed with 0.9% sodium chloride via catheter until there was no more visible evidence of blood in the segment.
A 1-cm incubation chamber was created by ligatures in the segment area. The incubation chamber was flushed three times with 1 mL of 0.9% sodium chloride. A solution of 100 μl of 500 μM NHS-Rhodamine was prepared and incubated in the incubation chamber for 3 minutes. The excess of rhodamine was withdrawn with a 1 mL syringue. The incubation chamber was washed once again with 3 times […] of 0.9% sodium chloride. The incubation chamber was then removed from the rabbit, cut in three pieces and dipped in 10% formalin for further evaluation.

Row | Substance | fluorescence of treated arteries
1 | Rhodamine Green™-X, succinimidyl ester, hydrochloride mixed isomers [NHS-Rhodamine] | dramatic levels of fluorescence
2 | Rhodamine | little fluorescence over background
